pIC50: −log10 of the molar value. Read-outs that look alike come from different tables or passages of the source.
Key:
Type in all cases: cell-based, human
[1] = tested on: H1975 NSCLC cells; test: NSCLC cell proliferation in vitro (MTS assay); settings: 72 hours
Experimental: (§1) Cell culture: Human breast and non-small cell lung cancer cells (MCF7, ZR75-1, MDAMB231, A549, H23, H1975, […]) were from ATCC. MCF7-HER2 were a kind gift of Dr. Dennis Slamon (23). Cell lines were routinely maintained in RPMI 1640 or DMEM medium with 10% fetal bovine serum (FBS) (Sigma-Aldrich) and 1% Antibiotic-Antimycotic solution 100× (Mediatech, Herndon, Va.). When indicated, for estrogen-free conditions, media was changed 48 h before experiments to phenol-red free RPMI 1640/DMEM with 1% dextran-coated, charcoal-treated (DCC)-FBS (24,25). Otherwise experiments were performed in phenol-red free RPMI 1640/DMEM medium with 5% DCC-FBS.
(§2) Cell proliferation assays: breast and lung tumor cells (between […]) were plated in 96 well plates using their respective medium with 10% FBS. For experiments using estradiol-17β, cells were rinsed with PBS and incubated with phenol redfree medium with 1% DCC-FBS for 48 hours as described before (24,25). Cells were then treated with different concentrations of SERDs ranging between 0.0001-100 μM. […] Cell counts and viability tests (Trypan blue) were done every 24 hr for 3 days. After 72 hr, proliferation was assessed with the MTS Assay CELLTITER 96® Aqueous Cell Proliferation Assay (Promega) or the Cell Proliferation ELISA, BrdU colorimetric assay (Roche). For the MTS, the absorbance of the formazan product was measured at 490 nanometer using the iMARK microplate reader from BIORAD. The BrdU ELISA assay is based on detection of BrdU incorporated into the genomic DNA of proliferating cells and an anti-BrdU antibody, the reaction product was quantified by measuring the absorbance at 370 nanometers using iMARK microplate reader from BIORAD. Cell numbers were also assessed initially by cell counts to confirm MTS/BrdU data. Experiments were done at least three times to confirm data.

[2] = tested on: H2122 NSCLC cells; test: NSCLC cell proliferation in vitro (MTS assay); settings: 72 hours
Experimental: as §1, §2

[3] = tested on: MAPK: ERK-1 (p44) and ERK-2 (p42); test: Estrogen-induced MAPK phosphorylation, Western blot in MCF-7 cells; settings: MCF-7 parent cells, 1 nM estradiol (E2); antagonists pre-incubated at 1000 nM; FIG. 7A
Experimental: ERD inhibition of phosphorylation of MAPK, at both extracellular signal-regulated kinases ERK-1 (p44) and ERK-2 (p42) and downstream effects. […] Thus, we measured estrogen-induced phosphorylation of MAPK by established methods (9,15,16). Briefly, MCF-7 parental cells were estrogen deprived for 48 hrs, then treated with 1 nM estradiol-1713 in the presence of new compounds (10 nM-10 μM) to be tested for antagonist activity. After treatments, cell lysates were separated by SDS-PAGE followed by Western blot using a polyclonal antibody directed to phospho-p44/p42 MAP kinase (Thr202/Tyr204) (Cell Signaling). Immunodetection with antibody against total p44/p42 (Cell Signaling) was done as a control for gel loading. […] ERD S15 was as effective as fulvestrant in inhibiting the rapid estrogen-induced MAPK phosphorylation in breast tumor cells in vitro. […] E2 but not vehicle (CN) induced rapid phosphorylation of ERK-1 (p44) and ERK-2 (p42). This activation was prevented when cells were pre-incubated with 1000 nM ICI 182,780 (ICI; Faslodex) or 1000 nM compound S15 in the presence of estradiol (E2).

[4] = tested on: cleaved PARP; test: PARP cleavage, Western blot in A549 cells; settings: A549 cells, 0.01, 0.1 and 1 μM, 4 hours, 5% DCC-FBS; FIG. 2B
Experimental: FIG. 2B. […] A549 cells were treated in 5% DCC-FBS phenol-red free RPMI1640 with vehicle control (C) or increasing concentrations of JD140 at 0.01, 0.1 and 1 μM or 0.1 μM fulvestrant (F) for 4 hours. Western Blots were performed using anti-cleaved-PARP antibody (Cell Signaling Technology). RPL13A is shown as loading control. The Western blot is representative of 3 independent experiments.
We next assessed the effect of SERD compound 140 on the stimulation of NSCLC cell apoptosis by measurement of PARP cleavage at increasing drug doses (see FIG. 2B).
(§3) Gel electrophoresis and immunoblotting: Breast and lung tumor cells were treated in phenol-red free RPMI1640/DMEM with 5% DCC-FBS (26). After selected treatments cells were homogenized in the presence of protease inhibitors using RIPA buffer (Thermo Scientific). All procedures were performed in ice, lysates were centrifuged and protein concentration quantified in the supernatants using a Thermo Scientific® BCA protein assay kit. Approximately 20-60 μg of total protein were heated in the presence of Laemmli sample buffer (Biorad) to 100° C. for 10 min and loaded it on a gradient TGX gel 4-15% (Biorad). Gels were transferred to PVDF membranes for immunoblotting. Membranes were blocked either with 5% milk in Tris Buffer Saline with 0.1% Tween 20 or protein-free blocking solution (Thermo Scientific). […]

[5] = tested on: cyclin D1; test: Cyclin D1 expression, Western immunoblot in MCF-7 cells; settings: 24 hrs, 10% FBS, 1 μM and 10 μM, FIG. 7B
Experimental: FIG. 7B. […] Western immunoblot of cyclin D1 after treating MCF-7 cells 24 hrs with 10% FBS and 1 μM and 10 μM doses of JD105, JD128 and JD140. Refer to FIG. S4 methods and previous reports (20).
Next, SERD compounds developed in our laboratory were tested for a capability to suppress the expression of cyclin D1 in ERα-positive human breast cancer cells MCF-7 which were used to validate the activity of other hormonal agents previously (see 20) (FIG. 7B).
as §3

[6] = Homo sapiens, NCI-H1975, SERD alone, estrogen-depleted phenol red-free medium with 5% DCC-FBS, read-out: IC50 for inhibition of NSCLC cell proliferation, H1975
[7] = in the presence of 1 μM palbociclib, 5% DCC-FBS, read-out: IC50 of SERD for inhibition of NSCLC cell proliferation, H1975
[8] = Homo sapiens, NCI-H2122, SERD alone, estrogen-depleted phenol red-free medium with 5% DCC-FBS, read-out: IC50 for inhibition of NSCLC cell proliferation, H2122
[9] = in the presence of 1 μM abemaciclib, 5% DCC-FBS, read-out: IC50 of SERD for inhibition of NSCLC cell proliferation, H2122
[10] = in the presence of 1 μM palbociclib, 5% DCC-FBS, read-out: IC50 of SERD for inhibition of NSCLC cell proliferation, H2122

**Q.** With `C[C@]12C[C@H](Oc3ccc(N)cc3)[C@@H]3c4ccc(O)cc4CC[C@H]3[C@@H]1CC[C@@H]2O` [JD105, (8S,9S,11S,13S,14S,17S)-11-(4-aminophenoxy)-13-methyl-7,8,9,11,12,13,14,15,16,17-decahydro-6H-cyclopenta[a]phenanthrene-3,17-diol] as the molecule, how does the pIC50 [1, 6] read?
**A.** 5.35

**Q.** What about the pIC50 ([1]; in the presence of 1 μM abemaciclib, 5% DCC-FBS, read-out: IC50 of SERD for inhibition of NSCLC cell proliferation, H1975) of the same molecule?
**A.** 5.97

**Q.** What about the pIC50 [1, 7] of the same molecule?
**A.** 5.32

**Q.** And the pIC50 [2, 8]?
**A.** 5.42

**Q.** And the pIC50 [2, 9]?
**A.** 5.83

**Q.** And the pIC50 [2, 10]?
**A.** 5.38

**Q.** What about the “phosphorylation of MAPK (ERK-1 p44 and ERK-2 p42)” value [3] of the same molecule?
**A.** inhibits phosphorylation of MAPK

**Q.** `C[C@]12C[C@H](Oc3ccc(NC(=O)CCCCN4CCCCC4)c(F)c3)[C@@H]3c4ccc(O)cc4CC[C@H]3[C@@H]1CC[C@@H]2O` [JD140, N-(4-(((8S,9S,11S,13S,14S,17S)-3,17-Dihydroxy-13-methyl-7,8,9,11,12,13,14,15,16,17-deca-hydro-6H-cyclopenta[a]phenanthren-11-yl)oxy)-2-fluorophenyl)-5-(piperidin-1-yl)pentan-amide] was tested. Which pIC50 [1, 6] did it give?
**A.** 5.73

**Q.** And the pIC50 [1, 7]?
**A.** 4.77

**Q.** And the pIC50 [2, 8]?
**A.** 5.94

**Q.** What about the pIC50 [2, 9] of the same molecule?
**A.** 7.52

**Q.** And the pIC50 [2, 10]?
**A.** 5.95

**Q.** What about the PARP cleavage [4] of the same molecule?
**A.** enhanced PARP cleavage

**Q.** How did the pIC50 [1, 7] turn out when `C[C@]12C[C@H](Oc3ccc(N)c(C(F)(F)F)c3)[C@@H]3c4ccc(O)cc4CC[C@H]3[C@@H]1CC[C@@H]2O` [JD128, (8S,9S,11S,13S,14S,17S)-11-(4-Amino-3-(trifluoromethyl)phenoxy)-13-methyl-7,8,9,11,12,13,14,15,16,17-decahydro-6H-cyclopenta[a]phenanthrene-3,17-diol] was run?
**A.** 4.91

**Q.** And the pIC50 [2, 8]?
**A.** 5.88

**Q.** And the pIC50 [2, 9]?
**A.** 6.64

**Q.** And the pIC50 [2, 10]?
**A.** 6.02

**Q.** What about the “cyclin D1 expression” value [5] of the same molecule?
**A.** down-regulates cyclin D1

From US10918648B2, “Estrogen receptor modulator combinations” (The Regents of the University of California, priority 2016, dated 2021)
